Test results taken from PubChem BioAssay (NCI).
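How tested: cells in 96-well plates exposed to compound for 48 hours at five concentrations. GI50: concentration for 50% inhibition of growth. TGI marks complete inhibition of growth.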

How the values were obtained:
Experiment in all cases: DTP human tumour cell line panel, 48 h
[1] = system: UO-31 renal
[2] = system: MALME-3M melanoma
[3] = system: LOX IMVI melanoma
[4] = system: KM12 colon
[5] = system: A549 NSCLC
[6] = system: K-562 leukemia
[7] = system: EKVX NSCLC
[8] = system: A498 renal
[9] = system: OVCAR-8 ovarian
[10] = system: SK-MEL-28 melanoma
[11] = system: NCI-H460 lung

Compound | TGI [1] [µM] | TGI [2] [µM] | TGI [3] [µM] | TGI [4] [µM] | TGI [5] [µM] | TGI [6] [µM] | TGI [7] [µM] | TGI [8] [µM] | TGI [9] [µM] | TGI [10] [µM] | TGI [11] [µM] | GI50 [4] [µM] | GI50 [6] [µM] | GI50 [8] [µM] | GI50 [10] [µM] | GI50 [2] [µM] | GI50 [3] [µM] | GI50 [5] [µM] | GI50 [7] [µM] | GI50 [11] [µM]
COC(=O)[C@@H]1CC(C(C[N+](=O)[O-])c2ccc(O[Si](C)(C)C(C)(C)C)cc2)C(=O)N1C(=O)OC(C)(C)C (some centres not stated) | > 100 | > 100 | > 100 | > 100 | > 100 | > 100 | > 100 | > 100 | > 100 | > 100 |  |  |  |  |  |  |  |  |  | 
O=C1C(Cl)=C(Nc2ccc(S(=O)(=O)O)cc2)C(=O)c2ccccc21 | 29.2 | 36.9 | 80 | 56.3 | 58.7 | 94.2 | 52.5 |  | 90.6 | 83.2 | > 100 |  |  |  |  |  |  |  |  | 
O=C(Nc1nc2ccc([N+](=O)[O-])cc2s1)C(=O)C(C(=O)c1ccccc1F)C1OC(=O)c2ccccc21 (configuration not stated) | > 100 |  | > 100 | > 100 | > 100 | > 100 | 73.4 | > 100 | > 100 | > 100 | > 100 |  |  |  |  |  |  |  |  | 
Cc1cc(S(=O)(=O)Nc2nc3ccccc3nc2-c2cccc([N+](=O)[O-])c2)c(S)cc1Cl | 46.1 | 37.3 |  | 31.3 | 38 | > 100 | 54.4 | 29.1 | 80.9 | 32.9 | 35.3 |  |  |  |  |  |  |  |  | 
COc1c(Br)cc2c(c1OC)C(Br)CCC(Br)(Br)C2=O (configuration not stated) | 2.89 | 10.8 | 1.58 | 14.6 | 16.2 | 8.76 | 14.6 | 12.3 | 1.53 | 8.88 | 8.92 |  |  |  |  |  |  |  |  | 
CO/N=C(/C)c1ccc(NC(=O)CSc2nnc(-c3ccncc3)n2-c2ccccc2)cc1 |  |  |  | > 100 |  | > 100 |  | 8.08 |  | > 100 |  | > 100 | > 100 | 2.15 | > 100 |  |  |  |  | 
CN(C)CCCN1c2ccccc2Sc2ccc3ccccc3c21 | 17 | 21.6 | 19.8 | 19.3 | 26.6 | 5.56 | 23.9 | 14 | 27.1 | 4.26 | 7.66 |  |  |  |  |  |  |  |  | 
O=C1OC2(CC1C1(O)C3CC4CC(C3)CC1C4)C1CC3CC(C1)CC2C3 (configuration not stated) | > 100 | > 100 | > 100 | > 100 | > 100 | > 100 |  | 84.5 | > 100 | > 100 | > 100 |  |  |  |  |  |  |  |  | 
C=CC1(NC(=O)c2ccccc2)CCC(C(C)(C)C)CC1 (configuration not stated) | 77.7 | > 94.9 | 39.3 | > 100 | > 100 | > 100 | > 83.2 | > 100 | > 100 | > 100 | > 92.3 |  |  |  |  |  |  |  |  | 
O=C(c1ccccc1)c1ccc2nc(-c3c(Cl)c(Cl)c(Cl)c(Cl)c3C(=O)N/N=C/c3ccc(Cl)cc3)[nH]c2c1 | > 100 | > 100 | > 100 | > 100 | > 100 | > 100 | > 100 |  | > 100 | > 100 |  |  |  |  |  |  |  |  |  | 
CC(=O)Oc1cc2c(cc1OC(C)=O)OCC(c1ccccc1)C2 (configuration not stated) | 58.4 | 37.9 | 46 | 55.3 | 39.9 | 80.1 | 57.8 | 12.2 | 73.5 | 53.1 | 57.9 |  |  |  |  |  |  |  |  | 
CCN(CC)c1ccc2cc(C(=O)Nc3ccc4[nH]c(C(=O)N5C[C@@H](CCl)c6c5cc(OC(=O)Nc5ccccc5)c5[nH]cc(C)c65)cc4c3)oc2c1 | 982 | > 1000 |  | > 1000 | > 1000 | > 1000 |  | 0.000864 | > 1000 | > 1000 |  |  | 278 |  | 401 | 510 | 295 | 147 | 448 | 39.4
OCCNCCN1CCN(CCCN2c3ccccc3Sc3ccc(C(F)(F)F)cc32)CC1 |  | 45 | 28.5 | 45.1 | 48.6 |  | 52.3 | > 100 | 31.9 | 39.5 | 44.7 |  |  |  |  |  |  |  |  | 
O=c1ssc(=Nc2ccccc2)n1-c1ccccc1 | 31.7 | > 100 | 50.6 | > 100 | > 100 | 70.2 | > 100 | > 100 | 32.7 | > 100 | > 100 |  |  |  |  |  |  |  |  | 
N#C[C@H](OC1OC(COC2OC(CO)C(O)C(O)C2O)C(O)C(O)C1O)c1ccccc1 (some centres not stated) | > 250 | > 250 | > 250 | > 250 | > 250 | > 250 | > 250 | > 11.6 | > 250 | > 250 | > 250 |  |  |  |  |  |  |  |  | 
CCCc1c(-c2ccccc2)[nH]c2ccccc2c1=O | 69.1 | > 100 | 43.5 | 88.2 |  | > 100 | > 100 | 79 |  | > 100 | > 100 |  |  |  |  |  |  |  |  | 
O=C(CCl)NNC1=Nc2ccc(Cl)cc2SC1 | 3.49 | 3.31 | 2.48 | 9.94 | 26.2 | 5.34 | 4.08 | 35.1 | 2.02 | 3.92 | 20.4 |  |  |  |  |  |  |  |  | 
